Measured values from patent US8840938B2, “Bioavailability enhancing composition” (priority 2011, dated 2014).
Read-outs that look alike come from different tables or passages of the source.

How the values were obtained:
TRPV1 = TRPV1 (Homo sapiens, UniProt Q8NER1); test: Scoville Heat Unit (SHU) as a measure of TRPV1 activation; settings: for Adjusted SHU: SHU of pure agonist times percent agonist in the herb, totals per herb; for SHU of pure Agonist: pure TRPV1 agonist, per mg
Method: SHU as used herein as a measure of TRPV1 activation. SHU mg is calculated as the SHU of a TRPV1 agonist multiplied by the milligrams of the TRPV1 agonist in a compound.

[1] = cited from earlier work; for Peak theophylline plasma levels / levels of theophylline (absorption) / mean residence times of theophylline: rabbits, oral theophylline 20 mg/kg
[2] = concomitant ground capsicum fruit suspension

Chain of TRPV1 (Q8NER1 whole entry, species assumed): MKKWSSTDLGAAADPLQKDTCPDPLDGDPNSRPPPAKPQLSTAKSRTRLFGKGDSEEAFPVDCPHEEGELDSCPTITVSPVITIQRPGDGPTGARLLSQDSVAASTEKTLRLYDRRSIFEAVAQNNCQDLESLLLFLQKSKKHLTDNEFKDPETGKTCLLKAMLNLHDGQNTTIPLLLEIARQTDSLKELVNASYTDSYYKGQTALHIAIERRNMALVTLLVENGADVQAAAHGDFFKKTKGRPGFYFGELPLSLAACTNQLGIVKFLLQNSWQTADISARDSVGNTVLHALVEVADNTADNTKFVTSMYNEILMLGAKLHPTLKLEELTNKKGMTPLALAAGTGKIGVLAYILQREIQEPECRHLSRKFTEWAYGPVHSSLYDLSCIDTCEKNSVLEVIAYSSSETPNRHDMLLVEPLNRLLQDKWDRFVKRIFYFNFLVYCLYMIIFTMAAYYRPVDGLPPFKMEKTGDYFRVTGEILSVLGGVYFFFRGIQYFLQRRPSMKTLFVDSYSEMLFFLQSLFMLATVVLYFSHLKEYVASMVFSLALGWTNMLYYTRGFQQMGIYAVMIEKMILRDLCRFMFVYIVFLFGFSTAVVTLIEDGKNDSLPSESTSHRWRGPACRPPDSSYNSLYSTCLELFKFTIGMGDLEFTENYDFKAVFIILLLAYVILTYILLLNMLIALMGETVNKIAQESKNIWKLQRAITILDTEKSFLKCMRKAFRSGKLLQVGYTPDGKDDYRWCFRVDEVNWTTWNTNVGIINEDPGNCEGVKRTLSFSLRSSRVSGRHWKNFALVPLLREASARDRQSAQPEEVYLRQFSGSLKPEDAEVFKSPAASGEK

Row | Compound | Adjusted SHU (TRPV1) | SHU of pure Agonist (TRPV1) | further results
1 | CCCCC/C=C/C(=O)CCc1ccc(O)c(OC)c1 [Formulation 6-shogaol, 6-shogaol] | 9,600 SHU | 160,000 SHU | –
2 | Cn1c(=O)c2[nH]cnc2n(C)c1=O [theophylline] | – | – | Peak theophylline plasma levels [1, 2]: 8.78 ± 0.98 mg/L; levels of theophylline (absorption) [1, 2]: 138.32+/−17.27 mg H/liter; mean residence times of theophylline [1, 2]: 20.98+/−5.75 H; Peak theophylline plasma levels ([1]; without capsicum): 6.65 ± 0.76 mg/L; levels of theophylline (absorption) ([1]; without capsicum): 86.06+/−9.78 mg H/liter; mean residence times of theophylline ([1]; without capsicum): 14.94+/−2.97 H; theophylline plasma levels after second administration of capsicum suspension ([1]; second capsicum suspension 11 hours later, every rabbit): new rise
3 | COc1cc(CNC(=O)CCCC/C=C/C(C)C)ccc1O [capsaicin] | 40,000 SHU | 16,000,000 SHU | –
4 | C/C=C/C=C/C=C/CC/C=C/C(=O)NCC(C)(C)O [β-hydroxy-sanshool] | 35 SHU | 13,000 SHU | –
5 | C/C=C/C=C/C=C/CC/C=C/C(=O)NCC(C)C [β-sanshool] | 49 SHU | 70,000 SHU | –
6 | C/C=C/C=C/C=C\CC/C=C/C(=O)NCC(C)C [α-sanshool] | 368 SHU | 80,000 SHU | –
7 | C/C=C/C=C/C=C\CC/C=C/C(=O)NCC(C)(C)O [α-hydroxy-sanshool] | 619 SHU | 26,000 SHU | –
8 | C/C=C/C=C/C=C/CC/C=C/C=C/C(=O)NCC(C)C [δ-sanshool] | 22 SHU | 110,000 SHU | –
9 | C/C=C/C=C/C=C\CC/C=C/C=C/C(=O)NCC(C)C [γ-sanshool] | 209 SHU | 110,000 SHU | –
10 | CCCCC[C@H](O)CC(=O)CCc1ccc(O)c(OC)c1 [Formulation 6-gingerol, 6-gingerol] | 3,600 SHU | 60,000 SHU | –
